The results in this text go back to publication PMC11191317, “PNSC928, a plant-derived compound, specifically disrupts CtBP2-p300 interaction and reduces inflammation in mice with acute respiratory distress syndrome” (Biology Direct, 2024).

The data set concerns C57BL/6 mice. Briefly: In vivo toxicity in C57BL/6 mice (body weight, serum cytokines, liver and kidney function, H&E). The note with it: for Body weight: C57BL/6 mice, 6 days, MTOB 400 and 800, NSC95397 2 and 4, C646 5 and 10, A-485 40 and 80, TPCA1 10 and 20, BOT64 30 and 60 mg/kg. Details: species or system mouse. How it is done:
Whole blood samples were allowed to stand undisturbed at room temperature for 15 min before being centrifuged at 1,000 × g for 10 min. The supernatant serum and BALF were used to measure concentrations of IL-1β, IL-6, IL-15, IL-18, and TNF-α with specific enzyme-linked immunosorbent assay (ELISA) kits as per manufacturer guidelines. The ELISA kits used were: IL-1β (Thermo Fisher; #KMC0011), IL-6 (Thermo Fisher; #KMC0061), IL-15 (Abcam; Shanghai, China; #ab275898), IL-18 (Thermo Fisher; #BMS618-3), and TNF-α (Thermo Fisher; #BMS607-3). Total BALF protein levels were measured using the BCA Protein Assay Kit (Abcam; #ab102536) according to the manufacturer’s protocol.
Serum activities or levels of alanine aminotransferase (ALT), aspartate aminotransferase (AST), alkaline phosphatase (ALP), blood urea nitrogen (BUN), and creatinine were measured using commercially available assay kits, including the ALT Activity Assay Kit (Abcam; #ab105134), AST Activity Assay Kit (Abcam; #ab105135), ALP Assay Kit (Abcam; #ab83369), BUN Colorimetric Detection Kit (Thermo Fisher; #EIABUN), and Creatinine Assay Kit (Abcam; #ab65340). All experimental procedures were conducted according to the respective manufacturer’s protocols.
Lung, heart, liver, and kidney tissues were collected from various groups of mice, including ARDS, ARDS + MTOB, ARDS + NSC95397, ARDS + C646, ARDS + A-485, ARDS + TPCA1, ARDS + BOT64, and ARDS + PNSC928. The tissues were fixed in 10% neutral-buffered formalin (Sigma-Aldrich; #HT501128) for 48 h, then dehydrated through a graded ethanol series (70%, 80%, 90%, and 100%, for 30 min each). The dehydrated tissues were embedded in paraffin blocks and allowed to solidify. The paraffin blocks were sectioned at 5 μm, with the sections floated on a water bath to remove wrinkles before being transferred onto glass slides. The slides were dried, dewaxed with xylene, and rehydrated through a reverse ethanol series (100%, 90%, 80%, and 70%, for 30 min each), followed by a final rinse in distilled water. The rehydrated sections were stained using the Hematoxylin and Eosin Kit (Abcam; #ab245880) according to the manufacturer’s guidelines. After staining, the sections were dehydrated through a graded ethanol series (70%, 80%, 90%, and 100%, for 30 min each), then cleared with xylene. The sections were mounted with a mounting medium (Abcam; #ab64230) and imaged using a Nikon light microscope for tissue morphology.
C57BL/6 mice were administrated with MTOB (400 and 800 mg/kg), NSC95397 (2 and 4 mg/kg), C646 (5 and 10 mg/kg), A-485 (40 and 80 mg/kg), TPCA1 (10 and 20 mg/kg), BOT64 (30 and 60 mg/kg) for a duration of 6 days (n = 10 for each group). (A-F) Body weights were measured every two days. (G-K) Serum concentrations of different groups of mice. (G) IL-1β, (H) IL-6, (I) IL-15, (J) IL-18, and (K) TNF-α. *P < 0.05
C57BL/6 mice were administrated with MTOB (400 and 800 mg/kg), NSC95397 (2 and 4 mg/kg), C646 (5 and 10 mg/kg), A-485 (40 and 80 mg/kg), TPCA1 (10 and 20 mg/kg), and BOT64 (30 and 60 mg/kg) for a duration of 6 days (n=10 for each group). (A) Serum concentration of IFN-γ in different groups of mice. (B) Serum BUN concentration. (C) Activities of ALT, AST, and ALP in serum. (D) Serum creatinine concentration. (E) Representative H&E staining images of lung, liver, kidney, and heart from the following groups of mice: Control, MTOB (800 mg/kg), NSC95397 (4 mg/kg), C646 (10 mg/kg), A-485 (80 mg/kg), TPCA1 (20 mg/kg), and BOT64 (60 mg/kg). Bars=100 μm. For the significant difference analysis in B-D, all drug-treated groups were compared with the Control group of mice. *P<0.05; **P<0.01; ***P<0.001.
[…] (A) Serum ALT activity. (B) Serum AST activity. (C) Serum ALP activity. (D) Serum BUN concentration. (E) Serum creatinine concentration. (F) Body weights were recorded every two days. (G) Representative H&E staining images of lung, liver, kidney, and heart. Bars=100 μm.

[1] abbreviates: PNSC928 0, 5, 10, and 20 mg/kg at two-day intervals for 6 days.

Regarding `NC(=O)Nc1sc(-c2ccc(F)cc2)cc1C(N)=O` [TPCA1], the Body weight result was “significant decrease in body weight”. `O=C1C(SCCO)=C(SCCO)C(=O)c2ccccc21` [NSC95397]: the Body weight result is on record as “significant decrease in body weight”.

In the case of `CC1(C)CC(=O)c2sc(=Nc3ccccc3)oc2C1` [BOT64], the Body weight result is recorded as “significant decrease in body weight”. As to `CNC(=O)Nc1ccc2c(c1)CC[C@@]21OC(=O)N(CC(=O)N(Cc2ccc(F)cc2)[C@@H](C)C(F)(F)F)C1=O` [A-485], the Body weight result is recorded as “significant decrease in body weight”. Regarding `CC1=NN(c2ccc(C(=O)O)cc2)C(=O)/C1=C\c1ccc(-c2cc(C)c(C)cc2[N+](=O)[O-])o1` [C646], the Body weight entry was “significant decrease in body weight”. For the molecule `CC(=CCCC1=CCC(C2COC(=O)C2)OC1O)CCC1=C(C)CCCC1(C)C` (stereo not shown) [PNSC928], under setting [1], the “Activities and levels of ALT, AST, ALP, BUN, and creatinine” value was “no discernible alterations”; the “Histological examination of lung, heart, liver, and kidney” value was “no conspicuous damage”; the Mouse body weights result is reported as “did not affect mouse body weights”. In addition, the “Behavioral activities (feeding, balance ability, sleeping patterns)” value (PNSC928 0, 5, 10, and 20 mg/kg at two-day intervals for 6 days, data not shown) is “did not affect”. As to `CSCCC(=O)C(=O)O` [MTOB], the Body weight entry is on record as “significant decrease in body weight”.
